Experimental data as given in patent US5447869A, “Method of detecting bitter or odorous substances and apparatus therefor” (Sogo Pharmaceutical Company Limited, priority 1987, dated 1995).
Where two headings read alike, the source gives them in different places.

Legend:
[1] = system: tadpole; assay: Anesthetic potency obtained by use of a tadpole; format: in vivo; settings: Table 6; potency converted to gaseous system; partial pressure ratio, methanol as 1.00
[2] = system: tadpole; settings: cited from earlier work
[3] = system: tadpole; assay: Anesthetic potency obtained by use of a tadpole; settings: in vivo
From the text: In Table 3, potency is a value representing intensity of the anesthetics and is shown as values obtained by use of a tadpole.

[4] = Adsorption from aqueous phase on polystyrene film
[5] = Adsorption from aqueous phase on polyvinyl alcohol film
[6] = Adsorption from aqueous phase on uncoated crystal oscillator
[7] = Adsorption from aqueous phase on poly(methyl-L-glutamate) film
[8] = for Adsorbed amounts / Frequency Changes -ΔF: Example 9, 2C18 N^+ 2C1 /PSS^-, halothane 9.48×10^-4 M aqueous
Procedure: In FIG. 6, the immobilized bilayer film is cast on a silver-deposited electrode 2 of the crystal oscillator 1 [or on both sides of a silver-electrode-deposited piezoelectric crystal (9 MHz; AT-cut)] and dipped into deionized water in cell 3, bitter or odorous substances are injected thereinto as a solution thereof through an irritant-injecting device 4, frequency changes after the injection are measured by a frequency measuring means (not shown) constituting the crystal oscillator 1, and adsorbed amounts of bitter or odorous substances onto the immobilized bilayer film are determined from proportionality thereof to the frequency changes thus obtained.
The partition coefficient means a ratio of the adsorbed amount of an irritant such as the bitter or odorous substance or the like onto the immobilized bilayer film to an amount by weight of the irritant such as the bitter or odorous substance or the like in the aqueous solution of a constant volume.
Since frequency changes of 10 Hz or less are considered to be within errors in measurements, the concentration at the frequency change of 10 Hz is defined as a concentration threshold value.

[9] = Example 10; Cholesterylammonium poly(p-styrenesulfonate); halothane 9.48×10^-4 M
[10] = Example 11; CTAB^+ /PSS^-; halothane 9.48×10^-4 M
[11] = Comparative Example 6; Polyvinyl chloride, 45° C.; halothane 9.48×10^-4 M
[12] = gas phase
From the text: At point B in FIG. 9, the coated crystal oscillator or crystal is removed from the cell into atmosphere with the result that the frequency reverts soon to the same as at point A in FIG. 9, at which the coated crystal oscillator or crystal is placed in the cell. […] In the determination of adsorbed amounts from frequency changes thus obtained, the adsorbed amount is represented in terms of partition coefficient obtained by dividing the adsorbed amount by the total weight of the odorous substance molecules actually existing in the gas phase in order to cancel differences in vapor pressure in the gas phase.

[13] = Table 3, tadpole, intensity of the anesthetic
[14] = Table 6, concentration ratio of aqueous solution, methanol as 1.00
[15] = Comparative Example 5, Polystyrene, 45° C., halothane 9.48×10^-4 M
[16] = Comparative Example 7, Polyvinyl alcohol, 45° C., halothane 9.48×10^-4 M
[17] = Comparative Example 8, PMLG, halothane 9.48×10^-4 M

CCCCO [1-butanol]
Potency atm [1]: 9.41 × 10^2

CCCCCCCCCCO [1-decanol]
Potency atm [1]: 1.11 × 10^9
Potency [2, 13]: 1.00 × 10^5

CCCCCCO [1-hexanol]
Potency [2, 13]: 1.12 × 10^3

CCCCCCCCCO [1-nonanol]
Potency atm [3]: 2.51 × 10^8
Potency [2, 13]: 4.03 × 10^4

CCCCCCCCO [1-octanol]
Potency atm [3]: 1.21 × 10^7
Potency [2, 13]: 7.93 × 10^3

O=C1C[C@@H]2OCC=C3CN4CC[C@]56c7ccccc7N1[C@H]5[C@H]2[C@H]3C[C@H]46 [Strychnine, strychnine]
frequency changes due to adsorption ([4]; Comparative Example 4, polystyrene-coated, regardless of temperature, FIG. 12): very little frequency changes
Partition Coefficient ([4]; Table 2, coating: Polystyrene film): 0.05 10^-3
Partition Coefficient ([5]; Table 2, coating: Polyvinyl alcohol film): 0.03 10^-3
frequency changes due to adsorption ([6]; Comparative Example 3, uncoated, regardless of temperature, FIG. 12): little or no frequency changes
Partition Coefficient ([6]; Table 2, coating: None): 0.03 10^-3
Partition Coefficient ([7]; Table 2, coating: Polymethyl-L-glutamate film): 0.02 10^-3

CC(C)=O [acetone]
Potency atm [1]: 1.76
Potency [2, 13]: 3.47
Potency [2, 14]: 3.47

OCc1ccccc1 [benzylalcohol]
Potency atm [3]: 6.25 × 10^5
Potency [2, 13]: 5.01 × 10^2

ClC(Cl)Cl [chloroform]
Potency atm [1]: 4.62 × 10^2
Potency [2, 13]: 7.62 × 10^2

CCOCC [diethyl ether]
Potency atm [1]: 6.43

CCO [ethanol]
Potency atm [1]: 5.19
Potency [2, 13]: 2.43
Potency [2, 14]: 2.43

FC(F)(F)C(Cl)Br (centres unmarked) [halothane]
Potency atm [3]: 1.72 × 10^3
Adsorbed amounts ([8]; 20° C.): 101 ng
Frequency Changes -ΔF ([8]; 20° C.): 96 Hz
Adsorbed amounts ([8]; 45° C.): 318 ng
Frequency Changes -ΔF ([8]; 45° C.): 303 Hz
adsorbed amount versus film thickness ([8]; Example 14, aqueous, 45° C., halothane 3.00×10^-4 M, FIG. 19): increased with increased film thickness
Adsorbed amounts [9]: 82 ng
Frequency Changes -ΔF [9]: 78 Hz
Adsorbed amounts [10]: 249 ng
Frequency Changes -ΔF [10]: 237 Hz
Adsorbed amounts [11]: 74 ng
Frequency Changes -ΔF [11]: 70 Hz
adsorption amount versus film thickness ([12]; Example 20, 25° C., 2 μl halothane, FIG. 23): linearly increased
Potency [2, 13]: 4.47 × 10^3
Adsorbed amounts [4, 15]: 74 ng
Frequency Changes -ΔF [4, 15]: 70 Hz
Adsorbed amounts [5, 16]: 53 ng
Frequency Changes -ΔF [5, 16]: 50 Hz
Adsorbed amounts [7, 17]: 176 ng
Frequency Changes -ΔF [7, 17]: 168 Hz

CCCCCC [hexane]
Potency atm [1]: 5.21 × 10^4
Potency [2, 13]: 6.75 × 10^4

CO [methanol]
Potency [2, 13]: 1.00
Potency [2, 14]: 1.00

COC(F)(F)C(Cl)Cl [methoxyflurane]
Potency atm [3]: 1.82 × 10^4
Potency [2, 13]: 4.86 × 10^3

CC1OC(C)OC(C)O1 (centres unmarked) [paraldehyde]
Potency atm [3]: 8.20 × 10^2

CCCCC [pentane]
Potency atm [3]: 3.34 × 10^3
Potency [2, 13]: 1.51 × 10^4

CC(=O)/C=C/C1=C(C)CCCC1(C)C [β-ionone]
reversibility of adsorption ([8]; 45° C., strychnine 58.3 μM, β-ionone 125 μM, FIG. 7, FIG. 8): reversible
frequency change in saturated vapor ([12]; Example 6, FIG. 9): the frequency rapidly decreases and then becomes constant soon
